Experimental data published in US11000033B2, “Ketone or oxime compound, and herbicide” (NISSAN CHEMICAL CORPORATION, priority 2014, dated 2021).

Tested on: Leptochloa chinensis
Test: Test Example 3: herbicidal effect by foliage application, Wagner pot (symbol D)
Type: in vivo
Conditions: application herbicide amount 320 g/ha
Method in brief: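 Weeds and rice were sown in alluvial soil under 0.1–0.5 cm of standing water and grown for 14 days in a 25–30 °C greenhouse. An emulsion of the compound, diluted in water to a set dose, was sprayed evenly onto the foliage. Effect was scored against fixed criteria 3 weeks after treatment.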

SMILES	herbicidal effect on D (Leptochloa chinensis), grade 0-5
CON=C(C)CC1CC(OS(=O)(=O)CCCCl)=C(c2c(C)cc(C)cc2C)C1=O (centres unmarked) [1-142]	5 (Herbicidal ratio of 90% or more (almost completely withered))
C=CCN(CC=C)C(=O)OC1=C(c2c(C)cc(C)cc2C)C(=O)C(CC(C)=NOC)C1 (centres unmarked) [1-153]	5 (Herbicidal ratio of 90% or more (almost completely withered))
CCC(CCC1CC(O)=C(c2c(C)cc(C)cc2C)C1=O)=NOC (mixture of isomers) [4-001]	3 (Herbicidal ratio of 40% or higher and lower than 70%)
Cc1cc(C)c(C2=C(O)CC(CC(=O)C(C)(C)C)C2=O)c(C)c1 (centres unmarked) [2-022]	4 (Herbicidal ratio of 70% or higher and lower than 90%)
Cc1cc(C)c(C2=C(O)CC(CC(=O)C3CC3)C2=O)c(C)c1 (centres unmarked) [2-017]	5 (Herbicidal ratio of 90% or more (almost completely withered))
CON=C(C)CC1CC(OCC(=O)OC)=C(c2c(C)cc(C)cc2C)C1=O (centres unmarked) [1-012]	0 (Herbicidal ratio of 5% or lower (almost no effect))
CON=C(C)CC1CC(OC(=O)N2CCCCC2)=C(c2c(C)cc(C)cc2C)C1=O (centres unmarked) [1-151]	4 (Herbicidal ratio of 70% or higher and lower than 90%)
CON=C(C)CC1CC(O)=C(c2c(C)cc(-c3ccc(C(F)(F)F)cc3)cc2C)C1=O (mixture of isomers) [6-016]	5 (Herbicidal ratio of 90% or more (almost completely withered))
CON=C(C)CC1CC(OC(=O)OC)=C(c2c(C)cc(C)cc2C)C1=O (centres unmarked) [1-014]	5 (Herbicidal ratio of 90% or more (almost completely withered))
CCC(=O)CCC1CC(O)=C(c2c(C)cc(C)cc2C)C1=O (centres unmarked) [5-001]	3 (Herbicidal ratio of 40% or higher and lower than 70%)
COC(=O)C(C(C)=O)C1CC(O)=C(c2c(C)cc(C)cc2C)C1=O (centres unmarked) [2-003]	5 (Herbicidal ratio of 90% or more (almost completely withered))
CON=C(C)CC1CC(OS(=O)(=O)CC[Si](C)(C)C)=C(c2c(C)cc(C)cc2C)C1=O (centres unmarked) [1-144]	5 (Herbicidal ratio of 90% or more (almost completely withered))
CON=C(C)CC1CC(O)=C(c2c(C)cc(-c3cccc(Cl)c3)cc2C)C1=O (mixture of isomers) [6-034]	5 (Herbicidal ratio of 90% or more (almost completely withered))
CON=C(C)CC1CC(OC(=O)C(C)(C)c2ccc(Cl)cc2)=C(c2c(C)cc(C)cc2C)C1=O (centres unmarked) [1-148]	5 (Herbicidal ratio of 90% or more (almost completely withered))
CON=C(C)CC1CC(O)=C(c2c(C)cc(-c3ccc(Cl)cc3)cc2C)C1=O (mixture of isomers) [6-029]	5 (Herbicidal ratio of 90% or more (almost completely withered))
Cc1cc(C)c(C2=C(O)CC(CC(=O)C3CCCCC3)C2=O)c(C)c1 (centres unmarked) [2-030]	5 (Herbicidal ratio of 90% or more (almost completely withered))
CCOC(=O)C(C(=O)c1ccccc1)C1CC(O)=C(c2c(C)cc(C)cc2C)C1=O (centres unmarked) [2-008]	0 (Herbicidal ratio of 5% or lower (almost no effect))
CON=C(C)CC1CC(OC(=O)C(C)Oc2ccc(Oc3ccc(Cl)cc3Cl)cc2)=C(c2c(C)cc(C)cc2C)C1=O (centres unmarked) [1-163]	5 (Herbicidal ratio of 90% or more (almost completely withered))
CCOC(=O)C(C(=O)C(F)(F)F)C1CC(O)=C(c2c(C)cc(C)cc2C)C1=O (centres unmarked) [2-010]	0 (Herbicidal ratio of 5% or lower (almost no effect))
CON=C(C)CC1CC(O)=C(c2c(C)cc(C)cc2Br)C1=O (centres unmarked) [6-038]	5 (Herbicidal ratio of 90% or more (almost completely withered))
CON=CC1CC(O)=C(c2c(C)cc(C)cc2C)C1=O (mixture of isomers) [3-001]	2 (Herbicidal ratio of 20% or higher and lower than 40%)
C=Cc1cc(C)c(C2=C(O)CC(CC(C)=NOC)C2=O)c(C)c1 (mixture of isomers) [6-031]	2 (Herbicidal ratio of 20% or higher and lower than 40%)
CCOC(=O)C(C(=O)C(C)C)C1CC(O)=C(c2c(C)cc(C)cc2C)C1=O (centres unmarked) [2-009]	0 (Herbicidal ratio of 5% or lower (almost no effect))
C#CCOC1=C(c2c(C)cc(C)cc2C)C(=O)C(CC(C)=NOC)C1 (centres unmarked) [1-008]	5 (Herbicidal ratio of 90% or more (almost completely withered))
CCC(=O)CCC1CC(OC)=C(c2c(C)cc(C)cc2C)C1=O (centres unmarked) [5-002]	0 (Herbicidal ratio of 5% or lower (almost no effect))
CON=C(C)C1CC(O)=C(c2c(C)cc(C)cc2C)C1=O (mixture of isomers) [3-002]	0 (Herbicidal ratio of 5% or lower (almost no effect))
CC#Cc1cc(C)c(C2=C(O)CC(CC(C)=NOC)C2=O)c(C)c1 (mixture of isomers) [6-009]	5 (Herbicidal ratio of 90% or more (almost completely withered))

SMILES	herbicidal effect on D (Leptochloa chinensis), grade 0-5
Cc1cc(C)c(C2=C(O)CC(CC(=O)C3CCCC3)C2=O)c(C)c1 (centres unmarked) [2-028]	5 (Herbicidal ratio of 90% or more (almost completely withered))
CCc1cc(C#C[Si](C)(C)C)cc(C)c1C1=C(O)CC(CC(C)=NOC)C1=O (mixture of isomers) [6-008]	5 (Herbicidal ratio of 90% or more (almost completely withered))
Cc1cc(C)c(C2=C(O)CC(CC(=O)Cc3ccccc3)C2=O)c(C)c1 (centres unmarked) [2-015]	0 (Herbicidal ratio of 5% or lower (almost no effect))
CCc1cc(-n2cc(Cl)cn2)cc(C)c1C1=C(O)CC(CC(C)=NOC)C1=O (mixture of isomers) [6-005]	5 (Herbicidal ratio of 90% or more (almost completely withered))
CCOC(=O)C(C(=O)c1ccccn1)C1CC(O)=C(c2c(C)cc(C)cc2C)C1=O (centres unmarked) [2-013]	0 (Herbicidal ratio of 5% or lower (almost no effect))
Cc1cc(C)c(C2=C(O)CC(CC(=O)C(C)C)C2=O)c(C)c1 (centres unmarked) [2-016]	5 (Herbicidal ratio of 90% or more (almost completely withered))
CON=C(C)CC1CC(OC(=O)c2ccc(C(F)(F)F)cc2)=C(c2c(C)cc(C)cc2C)C1=O (centres unmarked) [1-149]	5 (Herbicidal ratio of 90% or more (almost completely withered))
CON=C(C)CC1CC(O)=C(c2c(C)cc(C(=O)OC)cc2C)C1=O (centres unmarked) [6-023]	5 (Herbicidal ratio of 90% or more (almost completely withered))
CCOC(=O)C(C(=O)Cc1ccccc1)C1CC(O)=C(c2c(C)cc(C)cc2C)C1=O (centres unmarked) [2-011]	0 (Herbicidal ratio of 5% or lower (almost no effect))
COCC(=O)CC1CC(O)=C(c2c(C)cc(C)cc2C)C1=O (centres unmarked) [2-007]	5 (Herbicidal ratio of 90% or more (almost completely withered))
CCCC(=O)C(C(=O)OC)C1CC(O)=C(c2c(C)cc(C)cc2C)C1=O (centres unmarked) [2-020]	2 (Herbicidal ratio of 20% or higher and lower than 40%)
CON=C(C)CC1CC(OC(=O)c2c(Cl)nn(C)c2Cl)=C(c2c(C)cc(C)cc2C)C1=O (centres unmarked) [1-160]	5 (Herbicidal ratio of 90% or more (almost completely withered))
Cc1cc(C)c(C2=C(O)CC(CC(=O)CC3CC3)C2=O)c(C)c1 (centres unmarked) [2-026]	4 (Herbicidal ratio of 70% or higher and lower than 90%)
CON=C(C)CC1CC(OC(=O)c2ccccc2)=C(c2c(C)cc(C)cc2C)C1=O (centres unmarked) [1-010]	5 (Herbicidal ratio of 90% or more (almost completely withered))
C=CCOC(=O)OC1=C(c2c(C)cc(C)cc2C)C(=O)C(CC(C)=NOC)C1 (centres unmarked) [1-146]	5 (Herbicidal ratio of 90% or more (almost completely withered))
CON=C(C)CC1CC(O)=C(c2c(C)cc(-n3cc(Cl)cn3)cc2C)C1=O (mixture of isomers) [6-004]	5 (Herbicidal ratio of 90% or more (almost completely withered))
CCC(C)C(=O)CC1CC(O)=C(c2c(C)cc(C)cc2C)C1=O (centres unmarked) [2-024]	3 (Herbicidal ratio of 40% or higher and lower than 70%)
CON=C(C)CC1CC(OC(=O)c2ccccc2OC(F)(F)F)=C(c2c(C)cc(C)cc2C)C1=O (centres unmarked) [1-155]	5 (Herbicidal ratio of 90% or more (almost completely withered))
CCCC(=O)CC1CC(O)=C(c2c(C)cc(C)cc2C)C1=O (centres unmarked) [2-021]	3 (Herbicidal ratio of 40% or higher and lower than 70%)
CC(=O)CC1CC(OC(=O)C(C)(C)C)=C(c2c(C)cc(C)cc2C)C1=O (centres unmarked) [2-018]	5 (Herbicidal ratio of 90% or more (almost completely withered))
CON=C(C)CC1CC(OC(=O)N2CCN(C)CC2)=C(c2c(C)cc(C)cc2C)C1=O (centres unmarked) [1-152]	5 (Herbicidal ratio of 90% or more (almost completely withered))
COC(=O)C(C(=O)C1CC1)C1CC(O)=C(c2c(C)cc(C)cc2C)C1=O (centres unmarked) [2-014]	4 (Herbicidal ratio of 70% or higher and lower than 90%)
CC#Cc1cc(C)c(C2=C(O)CC(CC(C)=NOC)C2=O)c(CC)c1 (mixture of isomers) [6-006]	5 (Herbicidal ratio of 90% or more (almost completely withered))
CON=C(C)CC1CC(OC(=O)N2CCCC2)=C(c2c(C)cc(C)cc2C)C1=O (centres unmarked) [1-150]	4 (Herbicidal ratio of 70% or higher and lower than 90%)
CCOC(=O)C(C(=O)CC1CC1)C1CC(O)=C(c2c(C)cc(C)cc2C)C1=O (centres unmarked) [2-025]	1 (Herbicidal ratio of 5% or higher and lower than 20%)
COCCOC(=O)OC1=C(c2c(C)cc(C)cc2C)C(=O)C(CC(C)=NOC)C1 (centres unmarked) [1-147]	5 (Herbicidal ratio of 90% or more (almost completely withered))
